System: adult fleas (Ctenocephalides felis)
Assay: In vitro contact test with fleas (coated test tubes)
Conditions: B-11 alone
Description: According to S. R. Colby, Weeds 15 (1967), 20-22, the expected action for a given combination of two active compounds can be calculated as follows: if • X is the kill rate, expressed in % of the untreated control, when employing active compound A at an application rate of m g/ha or in a concentration of m ppm, • Y is the kill rate, expressed in % of the untreated control, when employing active compound B at an application rate of n g/ha or in a concentration of n ppm and • E is the kill rate, expressed in % of the untreated control, when employing active compounds A and B at application rates of m and n g/ha or in a concentration of m and n ppm, • then
In this case, the actually observed kill rate must exceed the value calculated using the above formula for the expected kill rate (E).
In vitro contact tests with ticks and fleas
From Table 1, representatives of important classes of active compounds (component B) were now tested in combination with pyrazine derivatives of the formula (I) according to the invention as component A against arachnids and insects. To this end, roll-necked test tubes were coated with a solution of active compound A or B or a combination of the two in acetone (2 h of swing rotation at 30 rpm in a fume cupboard). […]

In the case of demiditraz [B-11], the “insecticidal activity in the contact test method” value is reported as “no insecticidal activity”.

Source: patent publication US9066945B2, “Ectoparasiticidal active substance combinations” (Bayer Intellectual Property GmbH, priority 2010, dated 2015)
